Measurements taken from PubChem BioAssay AID504630 (Southern Research Specialized Biocontainment Screening …, 2011).

Test system: human PBMC cytotoxicity, % cell control
Assay: cytotoxicity in human PBMCs, dose response, cytotoxicity control for HIV-1 antiviral project, cell-based, human PBMC, set 3 (AID 504630)

Cc1c2c(=O)n(-c3nc4ccccc4s3)nc-2cc(O)n1Cc1ccccc1
TC50: 13.2 µM
